Assay results as given in patent US9931335B2, “Desethylhydroxychloroquine for the treatment of diseases associated with inflammation” (The Board of Trustees of the Leland Stanford Junior …, priority 2013, dated 2018).

What was measured:
[1] = test system: inflammatory cytokines in mouse OA synovium; assay: Multiplex cytokine assay of OA synovial tissue from treated DMM mice; format: in vivo; conditions: for levels of inflammatory cytokines in OA synovium vs vehicle control: heat map, multiplex bead assay
Text: From a parallel experiment to the mouse OA experiment presented in Example 12 and FIG. 19, following in vivo dosing and at the time of termination OA synovial tissue was microdissected, homogenized to form a lysate, centrifuged, and supernatants assayed for levels of inflammatory cytokines using a multiplex bead-based cytokine assay (BioRad Laboratories, Hercules, Calif.).

[2] = test system: high-fat diet-induced NASH in C57BL/6 mice; assay: High fat diet-induced NAFLD/NASH in mice, prevention; format: in vivo, mouse; conditions: for liver score (NASH histology): 100 mg/kg/day from start of high-fat diet, vs vehicle (DHCQ P<0.001, HCQ P<0.05)
Description: To evaluate the effect of DHCQ and HCQ on an animal model of non-alcoholic fatty liver disease (NAFLD) which can lead to the development of NASH, C57BL/6 mice (8 per group) were fed a high-fat “western-style” diet (60% caloric content from fat; Taconic) for 6 weeks. The mice were asymptomatic throughout this time, but were developing a pre- or early-disease state. The mice were treated, starting at the time of initiation of the high-fat diet, with HCQ (100 mg/kg/day), DHCQ (100 mg/kg/day), or vehicle control, to prevent the development of NAFLD and NASH. After 6 weeks of treatment with DHCQ, HCQ and vehicle (control) while on a high-fat diet, blood was collected and mice sacrificed for histological analysis of liver pathology. Livers from the mice in each treatment group were fixed, embedded, sectioned, stained with H&E, representative micrographs are presented in FIG. 7A (both 10× and 20× magnification), “liver scores” determined using an established scoring system for NASH (Brunt et al, Nonalcoholic steatohepatitis: a proposal for grading and staging the histological lesions, American J. Gastroenterology, 1999, 94(9):2467-74).

[3] = test system: ganglion cell layer (GCL) of the retina; assay: Retinal histology of mice dosed for 3 months; format: in vivo, mouse; conditions: for number of cells (nuclei) in the GCL vs vehicle / nuclear shrinkage in the ganglion cell layer (GCL): 100 mg/kg/day, 3 months; for nuclear shrinkage in the ganglion cell layer (GCL): H&E
Text: At the time of termination, the eyes from each treatment group were carefully microdissected to ensure the retina remained intact, the eye was fixed in formalin, and the fixed eye sectioned to visualize the retina. […] Representative images of H&E stained retinal sections are presented from each treatment group in FIG. 17.
Using the histologic and quantitative pathology methodology adapted from Shichiri, et al (Shichiri, et al, JBC. 2012, 287(4):2926-34. PMID 22147702), the H&E stained retinal sections were evaluated for number of nuclei in the ganglion cell layer (GCL) (FIG. 18). The graph presents quantitation of the number of nuclei in the GCL of the retina from the indicated treatment groups. The number of cells in the GCL of the retina for each treatment group was compared with the number of cells in vehicle-treated control by two-tailed T test.

[4] = test system: TNF production by human peripheral blood mononuclear cells (PBMCs); assay: LPS-stimulated TNF production by human PBMCs (ELISA); format: cell-based; conditions: LPS 10 μg/ml, 10, 25 and 50 μM compound, 14 hours; vs LPS alone
Description: DHCQ reduced the production of the pro-inflammatory cytokine tumor necrosis factor (TNF) by human peripheral blood mononuclear cells (PBMCs) in response to pro-inflammatory lipopolysaccharide (LPS) stimulation (FIG. 10). Human PBMCs were isolated using Ficoll, 200,000 PBMCs were added to each well of a 96-well plate, and stimulated with LPS 10 μg/ml in the presence of a range of concentrations from 0 to 50 μM DHCQ, or 0 to 50 μM HCQ, for 14 hours, following which culture supernatants were collected and TNF measured by ELISA. Assays were run in triplicate.
Isolation of human PBMCs and monocytes. The Ficoll-Paque™ Plus (Cat; 17-1440-03GE Healthcare) was used to isolate human peripheral blood mononuclear cells (PBMCs) from blood collected from healthy donors. For cell culture, the isolated PBMCs were resuspended in culture medium (RPM11640) containing 10% FCS and antibiotics (penicillin 100 IU/mL and streptomycin 100 μg/mL). Monocyte Isolation Kit II (Cat; 130-091-153, Miltenyi Biotec) was used to isolate monocytes from the suspension of human PBMCs.
Stimulation assays. […]
Readout. […] For each assay, a parallel well treated identically was prepared and level of LDH measured to assure no evidence of cell death was induced by drug treatment.

[5] = LC/MS tissue levels of HCQ and DHCQ in plasma, retina and synovium of dosed mice; format: in vivo, mouse; conditions: for accumulation in the retina: 100 mg/kg/day oral gavage, LC/MS
Text: The major risk to long term administration of hydroxychloroquine is retinal accumulation and subsequent ocular toxicity (Terahi et al, 2008. Semin Opthal. (3):201-208. PMID). We sought to evaluate the retinal deposition of HCQ and DHCQ. To do so, we performed mass spectrometric analysis of drug and metabolite content in retina, in operated side and non-operated side synovial tissue, and in plasma derived from mice treated with either HCQ or DHCQ. […] The indicated statistical comparisons between the levels measured in the indicated tissue from each group were compared by two-tailed T test (*P<0.05, **P<0.01, ***P<0.001).
Mice, dosing with HCQ and DHCQ, isolation of specific tissues, and mass spectrometry measurement of HCQ and DHCQ levels in tissue samples. C57BL6 (B6) mice (n=5 per group) were treated with HCQ (100 mg/kg/day) or DHCQ (100 mg/kg/day) by oral gavage for 3 months. At experimental termination (3 months) mice were sacrificed and eyes removed under dissecting microscope. Curved microdisecting scissors was used to cut along the cornea and sclera, remove and discard the lens and visceral leaving the neural retina with eye shell to be placed in PBS and homogenized followed by centrifugation. Synovium was microdissected from the operated knee or the contralateral non-operated knee, normalized by weight of tissue, and placed in HPLC grade water before being homogenized and centrifuged. Plasma was obtained by tail bleeding. Plasma and tissue samples were precipitated with acetonitrile and levels of HCQ, DHCQ, BDCQ were evaluated by liquid chromatography/mass spectrometry (LC/MS) at Climax Laboratories, Inc. (San Jose, Calif.). The LC/MS analysis was conducted by using Shimazu 10A HPLC system (Shimadzu Scientific Instruments, Inc., Pleasanton, Calif.) with ACE C18, 50×2.1 HPLC column and ABSciex API-4000 Mass Spectrometer (ABSciex Corp. Foster City, Calif.) with Electrospray Ionization (ESI) and negative Multiple Reaction Monitoring (MRM) Scan. A gradient elution was used in separating the test compound with a mobile phase A (0.1% Formic Acid in 5 mM of NH4AC) and B (0.1% Formic acid in acetonitrile).

[6] = 100 mg/kg/day, 6 weeks, vs vehicle

Row | SMILES | levels of inflammatory cytokines in OA synovium vs vehicle control [1] | liver score (NASH histology) ([2]; 6 weeks) | number of cells (nuclei) in the GCL vs vehicle [3] | nuclear shrinkage in the ganglion cell layer (GCL) [3] | retinal cell loss in GCL, HCQ compared to DHCQ ([3]; P<0.05) | TNF production [4] | accumulation in the retina ([5]; 3 months) | level in surgical joint synovial tissue relative to retina ([5]; 100 mg/kg/day, 3 months) | Kp at 3 months ([5]; C57BL6, mouse, retina/plasma, oral, HCQ in HCQ dosed mice, 100 mg/kg/day, 3 months, read-out: level in retina/level in plasma) | cytokines, DHCQ monotherapy vs vehicle control, atorvastatin alone, HCQ+atorvastatin and HCQ alone (SAM) ([1]; false discovery rate <0.1%) | serum ALT [2, 6] | serum AST [2, 6] | liver score, AST and ALT compared to HCQ ([2]; P<0.05 two-tailed T test) | level in retina relative to plasma ([5]; DHCQ in both HCQ and DHCQ dosed mice)
1 | CCN(CCO)CCCC(C)Nc1ccnc2cc(Cl)ccc12 (stereo not drawn) [HCQ, hydroxychloroquine] | lower | statistically reduced | significantly lower | increased nuclear shrinkage in the GCL | statistically increased retinal cell loss | reduced PMBC TNF production | accumulated a high levels in the retina | accumulated at high levels in the retina relative to the low levels measured in the surgical joint synovial tissue | ~8.5 |  |  |  |  | 
2 | CC(CCCNCCO)Nc1ccnc2cc(Cl)ccc12 (stereo not drawn) [DHCQ, desethylhydroxychloroquine] | lower | statistically reduced | no reduction in the number of cells in the GCL | No increase in nuclear shrinkage in the GCL |  | reduced PMBC TNF production | only low-level accumulation in the retina | accumulated at higher levels in the surgical joint synovial tissue relative to the low levels measured in the retina |  | reduced the levels of multiple inflammatory cytokines including IL-1b, MCP-1, IFNγ, TNF-alpha IL12p40, and IL-12p70 | prevents and reduces abnormal elevations | prevents and reduces abnormal elevations | statistically superior activity to HCQ | much lower levels in plasma as compared to the retina
